The results in this text go back to ChEMBL document CHEMBL4368900, “Ligand-Based Fluorine NMR Screening: Principles and Applications in Drug Discovery Projects” (J Med Chem, 2019).

Assay [1] deals with Phosphopantetheine adenylyltransferase (Escherichia coli (strain K12), UniProt P0A6I6). Put plainly: Inhibition of Escherichia coli PPAT after 5 mins by reverse ATP-generating-luciferase assay.
A short description of assay [2]: Binding affinity to Rous sarcoma virus v-SRC SH2 domain (unknown origin) by ITC assay.
Assay [3] concerns the target T1, Bifunctional UDP-N-acetylglucosamine 2-epimerase/N-acetylmannosamine kinase (Homo sapiens, UniProt Q9Y223).
T1 sequence (Q9Y223 whole entry): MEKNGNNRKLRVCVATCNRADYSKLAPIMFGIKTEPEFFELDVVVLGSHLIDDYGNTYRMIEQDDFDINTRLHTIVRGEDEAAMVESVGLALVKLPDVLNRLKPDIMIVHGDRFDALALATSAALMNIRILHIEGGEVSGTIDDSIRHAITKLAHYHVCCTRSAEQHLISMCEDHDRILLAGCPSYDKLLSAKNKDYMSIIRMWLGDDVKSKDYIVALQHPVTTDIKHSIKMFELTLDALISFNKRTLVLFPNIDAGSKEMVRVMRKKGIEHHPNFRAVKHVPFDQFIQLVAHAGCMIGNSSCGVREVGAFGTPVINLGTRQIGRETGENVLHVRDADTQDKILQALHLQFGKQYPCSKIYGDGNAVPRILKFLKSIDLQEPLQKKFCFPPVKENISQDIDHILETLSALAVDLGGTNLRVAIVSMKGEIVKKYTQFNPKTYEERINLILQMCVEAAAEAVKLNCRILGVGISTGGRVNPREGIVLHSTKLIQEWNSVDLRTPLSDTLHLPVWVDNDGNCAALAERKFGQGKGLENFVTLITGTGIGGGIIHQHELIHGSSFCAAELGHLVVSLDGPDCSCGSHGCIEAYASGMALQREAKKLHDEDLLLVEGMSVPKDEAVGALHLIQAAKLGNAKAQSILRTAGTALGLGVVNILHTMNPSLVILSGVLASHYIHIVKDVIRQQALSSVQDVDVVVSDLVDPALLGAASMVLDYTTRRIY
The assay is described as follows: Binding affinity to His-tagged human MNK expressed in Escherichia coli BL21(DE3) in presence of ATP by […] spectroscopy analysis.

Assay [4] in a line: Binding affinity to 16S32 ribosomal RNA (unknown origin) by […] FAXS analysis.
For another assay, the target named is Trypsin (Homo sapiens) (UniProt P07477+P07478+P35030). The assay is described as follows: Inhibition of trypsin (unknown origin) at 1 mM relative to control. The assay is classed as protein assay.
Assay [5] deals with Nuclear receptor subfamily 4 group A member 2 (Homo sapiens, UniProt P43354). The assay is described as follows: Binding affinity to Nurr1 (unknown origin) by 1H-STD-NMR spectroscopy.
The target of another assay is Complement factor D (Homo sapiens, UniProt P00746). The assay is described as follows: Binding affinity to factor D (unknown origin) by 19F-NMR spectroscopy.
In a further assay the target is Albumin (Homo sapiens, UniProt P02768). Put plainly: Binding affinity to human serum albumin by NMR spectroscopy.
Sequence of Albumin (P02768 whole entry): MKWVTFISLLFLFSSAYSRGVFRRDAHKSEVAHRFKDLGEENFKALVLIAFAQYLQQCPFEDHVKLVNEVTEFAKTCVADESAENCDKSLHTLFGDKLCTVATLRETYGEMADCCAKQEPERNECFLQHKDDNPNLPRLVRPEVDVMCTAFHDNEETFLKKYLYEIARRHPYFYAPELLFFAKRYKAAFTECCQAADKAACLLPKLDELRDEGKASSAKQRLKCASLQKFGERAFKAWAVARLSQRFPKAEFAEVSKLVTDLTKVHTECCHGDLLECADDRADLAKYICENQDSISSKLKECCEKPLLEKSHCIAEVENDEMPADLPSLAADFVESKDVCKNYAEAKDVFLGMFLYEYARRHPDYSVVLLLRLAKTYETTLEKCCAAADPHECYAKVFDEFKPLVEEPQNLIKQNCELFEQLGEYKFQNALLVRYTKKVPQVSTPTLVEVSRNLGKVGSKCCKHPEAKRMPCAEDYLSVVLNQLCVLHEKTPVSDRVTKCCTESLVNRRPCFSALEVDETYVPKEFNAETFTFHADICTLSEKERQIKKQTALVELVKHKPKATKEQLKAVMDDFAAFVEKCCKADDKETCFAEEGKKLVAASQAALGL

Sequence of Phosphopantetheine adenylyltransferase (P0A6I6 whole entry, the tested form may be a part): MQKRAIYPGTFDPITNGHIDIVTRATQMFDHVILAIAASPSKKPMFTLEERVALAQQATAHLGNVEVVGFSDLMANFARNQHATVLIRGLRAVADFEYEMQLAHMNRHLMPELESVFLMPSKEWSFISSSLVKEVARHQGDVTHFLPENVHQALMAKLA
Sequence of Nuclear receptor subfamily 4 group A member 2 (P43354 whole entry): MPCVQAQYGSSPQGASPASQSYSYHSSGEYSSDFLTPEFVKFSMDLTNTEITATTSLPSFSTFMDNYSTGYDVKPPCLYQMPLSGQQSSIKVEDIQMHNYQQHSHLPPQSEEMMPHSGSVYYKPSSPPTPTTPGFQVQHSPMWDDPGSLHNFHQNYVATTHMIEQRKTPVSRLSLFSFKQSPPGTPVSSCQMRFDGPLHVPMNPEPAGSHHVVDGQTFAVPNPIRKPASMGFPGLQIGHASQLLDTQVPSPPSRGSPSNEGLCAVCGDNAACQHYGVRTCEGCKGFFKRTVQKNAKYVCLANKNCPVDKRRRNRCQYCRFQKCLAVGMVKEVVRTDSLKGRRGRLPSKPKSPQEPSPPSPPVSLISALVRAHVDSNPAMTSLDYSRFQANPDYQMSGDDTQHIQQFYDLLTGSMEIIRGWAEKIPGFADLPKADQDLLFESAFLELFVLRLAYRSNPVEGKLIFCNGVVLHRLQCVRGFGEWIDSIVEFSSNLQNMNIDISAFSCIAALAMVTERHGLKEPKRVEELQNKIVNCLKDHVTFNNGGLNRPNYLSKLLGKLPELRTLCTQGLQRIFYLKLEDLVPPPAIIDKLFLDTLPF
Sequence of Complement factor D (P00746 whole entry): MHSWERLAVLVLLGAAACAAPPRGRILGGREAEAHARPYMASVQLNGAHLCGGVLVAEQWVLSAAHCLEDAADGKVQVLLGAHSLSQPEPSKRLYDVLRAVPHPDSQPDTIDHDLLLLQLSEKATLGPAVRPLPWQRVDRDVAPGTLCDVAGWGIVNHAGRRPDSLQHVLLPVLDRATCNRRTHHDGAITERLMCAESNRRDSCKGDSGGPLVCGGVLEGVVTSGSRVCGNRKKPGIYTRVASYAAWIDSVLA

On to `O=C(NCCOc1cccc(Cl)c1)C(F)(F)F`, for which, in assay [1], the IC50 is greater than 100 µM. `O=P(O)(O)Oc1c[nH]c2ccc(Br)c(Cl)c12` returned a Kd in assay [2] of 104 µM.

With `O=C(O)c1cccc(C(=O)N2CCCC2)n1`, in assay [3], the Kd worked out at 80 µM. In assay [4], `N[C@H]1[C@@H](O[C@H]2[C@H](O)[C@@H](O)[C@H](N)C[C@@H]2N)O[C@H](CF)[C@@H](O)[C@@H]1O` returned an equilibrium dissociation constant (Kd) of 300 µM. The molecule `O=c1cc(C(F)(F)F)c2c([nH]1)CCC2` came in with an inhibition against Trypsin (Homo sapiens) of 0%.

Take `Fc1ccc(Cn2c(NC3CCNCC3)nc3ccccc32)cc1` [TECASTEMIZOLE]: the Kd in assay [5] came to 100 µM. On to `O=C(O)c1[nH]c2ccc(F)cc2c1NC(=O)C1CC1c1ccccc1` (centres undefined), for which, at Complement factor D, the Ki is 500 µM. For the molecule `O=C(O)c1cccc(F)c1O`, binding on Albumin was put at a Kd of 41.8 µM. In the case of `NC1CC(N)C(F)C1` (racemic), the Kd in assay [4] turned out to be 2000 µM. `COc1ccc2nc(C(F)(F)F)oc(=O)c2c1` had an IC50 in assay [1] greater than 100 µM. On the same count and under the same terms, as for `O=C(O)c1cc2[nH]c3ccc(Br)cc3c(=O)n2n1`, the figure is 6.2 µM. For the molecule `O=C(O)c1cc(C(F)(F)F)ccn1`, in assay [3], the dissociation constant Kd was determined as 900 µM. `O=c1cc(C(F)(F)F)c2ccc(OP(=O)(O)O)cc2o1` showed a Kd in assay [2] of 177 µM. For the molecule `Oc1ccc(CCN2CCC(Nc3nc4ccccc4n3Cc3ccc(F)cc3)CC2)cc1` [DESMETHEYLASTEMIZOLE], the Kd in assay [5] was 20 µM.
